From ChEMBL document CHEMBL3627672, “Structure-activity relationship study of syringolin A as a potential anticancer agent” (Bioorg Med Chem Lett, 2015)

Key:
[1] = biological target: T1, Proteasome Macropain subunit MB1 (Homo sapiens, UniProt P28074); test: Inhibition of proteasome beta-5 (unknown origin)
T1 sequence (P28074 whole entry): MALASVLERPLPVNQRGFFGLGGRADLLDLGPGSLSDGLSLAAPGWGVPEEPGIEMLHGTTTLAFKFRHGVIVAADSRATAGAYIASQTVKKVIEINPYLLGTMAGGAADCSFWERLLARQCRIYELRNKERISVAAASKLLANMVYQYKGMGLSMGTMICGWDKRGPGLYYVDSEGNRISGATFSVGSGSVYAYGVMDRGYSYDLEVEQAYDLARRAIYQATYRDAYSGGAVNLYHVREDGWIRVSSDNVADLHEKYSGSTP

[2] = Cytotoxicity against human MM1S cells; format: functional, cell-based; settings: MM1.S
A-431 = test: Antiproliferative activity against human A431 cells after 72 hrs by oxyluciferin luminescence assay; settings: A-431, 72 h
HCT-116 = test: Antiproliferative activity against human HCT116 cells after 72 hrs by oxyluciferin luminescence assay; settings: HCT-116, 72 h
RKO = test: Antiproliferative activity against human RKO cells after 72 hrs by oxyluciferin luminescence assay
[3] = Antiproliferative activity against human TOV21G cells after 72 hrs by oxyluciferin luminescence assay
CCRF-CEM = test: Antiproliferative activity against human CCRF-CEM cells after 72 hrs by oxyluciferin luminescence assay
[4] = Antiproliferative activity against human RPMI8266 cells after 72 hrs by oxyluciferin luminescence assay; settings: RPMI8266, 72 h
[5] = Cytotoxicity against human RPMI8266 cells

Ki [1] [nM] | IC50 (A-431) [nM] | IC50 (HCT-116) [nM] | IC50 (CCRF-CEM) [nM] | Compound | IC50 [2] [nM] | IC50 (RKO) [nM] | IC50 [3] [nM] | IC50 [4] [nM] | IC50 [5] [nM]
843 | – | – | – | CC(C)[C@H](NC(=O)N[C@H](C(=O)N[C@H]1/C=C/CCNC(=O)/C=C/[C@H](C(C)C)NC1=O)C(C)C)C(=O)O | 8500 | – | – | – | –
– | > 1000 | > 1000 | > 1000 | CCCCCCCCCC(=O)N1CCC[C@]1(Cc1ccccc1)C(=O)N[C@H]1/C=C/CCNC(=O)/C=C/[C@H](C(C)C)NC1=O | – | > 1000 | > 1000 | > 1000 | –
– | 191 | 434 | 221 | CCCCCCCCCC(=O)N[C@H](CC(=O)N[C@H]1/C=C/CCNC(=O)/C=C/[C@H](C(C)C)NC1=O)Cc1ccccc1 | – | 244 | 212 | 255 | –
– | 14.1 | 12.6 | 4.3 | CCCCCCCCCC(=O)N[C@@H](Cc1ccccc1)C(=O)N[C@H]1/C=C/CCNC(=O)/C=C/[C@H](C(C)C)NC1=O | – | 11.8 | 12.3 | 9 | 2.2
– | 28.2 | 27 | 11 | CC(C)C[C@H](NC(=O)[C@H](Cc1ccccc1)NC(=O)c1cnccn1)B(O)O [BORTEZOMIB] | – | 20.8 | 16.7 | 14.4 | –
– | 23.8 | 19.3 | 6.1 | CC(C)C[C@H](NC(=O)[C@H](CCc1ccccc1)NC(=O)CN1CCOCC1)C(=O)N[C@@H](Cc1ccccc1)C(=O)N[C@@H](CC(C)C)C(=O)[C@@]1(C)CO1 [CARFILZOMIB] | – | 27.1 | 23.8 | 13.9 | –
